Reference: patent EP1543832A2, “Use of trans-4[4-(3-chloro-4-methoxy-benzylamino) benzothieno[2,3-d]pyrimidin-2-yl]-cyclohexanecarboxylic acid in the treatment of extrapyramidal movement disorders” (MERCK PATENT GmbH, priority 2003, dated 2005)

What was measured:
[1] = tested on: catalepsy induced by conventional antidopaminergic drugs; experiment: Catalepsy induced by conventional antidopaminergic drugs such as haloperidol; settings: rat, in vivo
Method: Extrapyramidal motor side effects in e.g. rodents are measured by the ability of a drug to induce catalepsy. Catalepsy is defined as a state where an animal continues to remain in an unnormal (nonphysiological 'uncomfortable') posture for a long time (e.g.: M.E. Stanley and S.D. Glick, Neuropharmacology, 1996; 15: 393-394; C.J.E. Niemegeers and P. Janssen, Life Sci., 1979, […]). For example, if a hindpaw of a rat is placed on an elevated level, e.g. a platform elevated 3 cm above ground level, a normal rat immediately withdraws the hindpaw from the platform to the ground level. A cataleptic rat remains in this unnatural posture even for minutes.

[2] = tested on: Parkinsonian cynomolgus monkey; experiment: Adverse effects of long-term l-dopa treatment in the MPTP Parkinsonian cynomolgus monkey; format: in vivo; settings: MPTP monkeys chronically treated with l-dopa
Method: Treatment of adverse effects of conventional anti-Parkinsonian drugs as defined above are determined in a modification of the animal model of the Parkinsonian cynomolgus monkey according to P.J. Blanchet et al., Exp. Neurology 1998; 153: 214-222. Monkeys render parkinsonian by repeated injections of 1-methyl-4-phenyl-1,2,3,6-tetrahydropyridine (MPTP). The Parkinsonian monkeys are chronically treated with the standard I-dopa therapy according to P.J. Blanchet et al., Mov. Disord., 1998; 13: 798-802. Longterm treatment with I-dopa induces extrapyramidal motor side effects and psychotic states which are both qualitatively and quantitatively, assessed by the Abnormal Involuntary Movement Scale (P.J. Blanchet et al., Mov. Disord. 1998; 13: 798-802) for different body parts (face, neck, trunk, each limb) and by rating for psychotic states by observing the monkey's attention, reactivity and mobility. Trans-4-[4-(3-chloro-4-methoxybenzylamino)-benzothieno-[2,3-d]pyrimidin-2-yl]cyclohexane-carboxylic acid reduced overall choreiform dyskinesias and dystonic dyskinesias as well as psychotic states.

[3] = tested on: Parkinsonian cynomolgus monkey; experiment: MPTP Parkinsonian cynomolgus monkey, Laval University Disability Scale; format: in vivo
Source text: A typical animal model for idiopathic Parkinson's disease is the Parkinsonian cynomolgus monkey according to P.J. Blanchet et al., Exp. Neurology 1998; 153: 214-222. Monkeys render parkinsonian by repeated injections of 1-methyl-4-phenyl-1,2,3,6-tetrahydropyridine (MPTP).
Parkinsonian symptoms are qualitatively assessed by the use of the Laval University Disability Scale (B. Gomez-Mancilla et al., 1993; Mov. Disord. 8: 144-150) measuring the following symptoms: posture, mobility, climbing, gait, holding food, vocalizing, grooming, social interaction.

[4] = tested on: striatonigral degeneration approach in the rat; experiment: Striatonigral degeneration model (6-hydroxydopamine plus quinolinic acid), turning behavior; format: in vivo; settings: automated recorder
Source text: Another more recent animal model is the striatonigral degeneration approach in the rat according to G.K. Wenning et al., J. Neural Transm. Suppl., 1999; 55: 103-113. Rats receive an unilateral injection of 6-hydroxydopamine into the left medial forebrain bundle followed by an injection of quinolinic acid into the ipsilateral striatum inducing nigrostriatal degeneration. The degeneration results in turning behavior to a challenge with dopaminomimetics such as apomorphine or amphetamine. Turning behavior is measured by an automated recorder.

mutant dystonic hamster = experiment: Mutant dystonic hamster, scored dystonic attacks; format: in vivo; settings: scoring system
Source text: A typical animal model is the mutant dystonic hamster according to A. Richter and W. Löscher, Prog. Neurobiol. 1998; 54: 633-677. In this genetically dystonic hamsters, dystonic attacks are provoked by taking the animal from the home cage and placing it on a balance. The dystonic syndrome consists of a sequence of abnormal movements, and the severity of the single symptoms is rated by a scoring system.

[5] = tested on: cervical dystonia (spasmodic torticollis); experiment: Double-blind placebo-controlled study in cervical dystonia (TWSTRS); format: in vivo, patients; settings: 2.5 mg to 20 mg b.i.d. versus placebo
[6] = tested on: neuroleptics-induced muscle rigidity in rats; experiment: Neuroleptics-induced muscle rigidity (haloperidol challenge); format: in vivo; settings: resistance to passive flexion and extension of the hind limb
Source text: A typical animal model is neuroleptics-induced muscle rigidity in rats according to S. Wolfarth et al., Arch. Pharmacol. 1992; 345: 209-212. Rats are challenged with the conventional neuroleptic drug haloperidol which enhances muscle tone. Muscle tone is electromechanically measured as the resistence to passive flexion and extension of the hind limb. Trans-4-[4-(3-chloro-4-methoxybenzylamino)-benzothieno-[2,3-d]pyrimidin-2-yl]cyclo-hexanecarboxylic acid or a physiologically acceptable salt thereof thereof decrease the mucle tone enhanced by haloperidol.

[7] = tested on: Campus Syndrome in the Pietrain pig; experiment: Campus Syndrome tremor model, accelerometric recording; format: in vivo
Source text: (§1) Typical genetic models in mutant animals are the Campus Syndrome in the Pietrain pig according to A. Richter et al. (Exp. Neurology, 1995; 134: 205-213) or the Weaver mutant mouse according to J.R. Simon and B. Ghetti (Mol. Neurobiol., 1994; 9: 183-189). In the Campus Syndrome model, these mutant pigs show a high-frequency tremor when standing and during locomotion, but not while lying at rest. Assessment of tremor is made by accelerometric recording. In the Weaver mutant mouse, degenerative cerebellar atrophy is fould in association with tremor, gait instability, and toppling over the sides after a few steps.
(§2) Trans-4-[4-(3-chloro-4-methoxybenzylamino)-benzothieno-[2,3-d]pyrimidin-2-yl]cyclohexanecarboxylic acid or a physiologically acceptable salt thereof improve the Campus Syndrome in the Pietrain pig, i.e. reduce disabling tremor when standing and during locomotion, and enhance locomotor activity in the Weaver mutant mouse.

Weaver mutant mouse = experiment: Weaver mutant mouse, locomotor activity in activity cages; format: in vivo
Source text: as §1, §2

[8] = tested on: oxotremorine-induced tremor; experiment: Oxotremorine-induced tremor, rating scale; format: in vivo
Method: A typical animal model for drug-induced tremors is the oxotremorine-induced tremor (e.g. H. Hallberg and O. Almgren, Acta Physiol. Scand., 1987; 129: 407-13; J.G. Clement and W.R. Dyck, J. Pharmacol. Meth., 1989; 22: 25-36). Oxotremorine induces tremor which is measured by a rating scale. Trans-4-[4-(3-chloro-4-methoxybenzylamino)-benzothieno-[2,3-d]pyrimidin-2-yl]cyclohexanecarboxylic acid or a physiologically acceptable salt thereof inhibit oxotremorine-induced tremors.

[9] = Abnormal Involuntary Movement Scale

Compound: COc1ccc(CNc2nc([C@H]3CC[C@H](C(=O)O)CC3)nc3sc4ccccc4c23)cc1Cl [trans-4-[4-(3-chloro-4-methoxybenzylamino)-benzothieno-[2,3-d]pyrimidin-2-yl]cyclohexanecarboxylic acid]
- prevention of catalepsy induced by conventional antidopaminergic drugs [1]: able to prevent catalepsy
- reversal of already existing catalepsy induced by conventional antidopaminergic drugs such as haloperidol [1]: reverses already existing catalepsy
- dystonic dyskinesias [2, 9]: reduced
- overall choreiform dyskinesias [2, 9]: reduced
- psychotic states ([2]; rating of attention, reactivity and mobility): reduced
- parkinsonian symptoms ([3]; Laval University Disability Scale): reduced all the parkinsonian symptoms
- total activity ([3]; MPTP monkeys): increased
- Turning behavior induced by apomorphine or amphetamine [4]: dose-dependently antagonized
- severity of dystonic symptoms (mutant dystonic hamster): dose-dependently reduce
- TWSTRS scores [5]: significant improvement
- muscle tone enhanced by haloperidol [6]: decrease
- disabling tremor when standing and during locomotion [7]: reduce
- locomotor activity (Weaver mutant mouse): enhance
- oxotremorine-induced tremors [8]: inhibit
